The Kd is the constant that tells how readily two partners part at equilibrium. For orientation: IC50 means the concentration needed to halve the response being measured.

The nature of assay [1]: Binding affinity to purified human sickle cell hemoglobin by SPR assay. On the technique in general: In SPR one partner is held on a chip, and binding of the other changes the refractive index at the surface.
Assay [2] can be described thus: Stabilization of purified human sickle cell hemoglobin at its oxygenated (R) state assessed as reduction in conversion from oxygenated (R, relaxed state) to deoxygenated (T, tense state) under deoxygenating conditions.

`C[C@H](Oc1cc2cc(F)cc(F)c2nc1N)c1ncc(F)cc1-n1cccn1` gave a Kd in assay [1] of 45 nM. Besides, the IC50 in assay [2] worked out at 3620 nM.
In turn, `C[C@H](Oc1cc2cc(F)ccc2nc1N)c1nc(OCCO)ccc1-n1cccn1` registered a dissociation constant Kd in assay [1] of 44 nM. In addition, the IC50 in assay [2] turned out to be 3830 nM.
In the case of `CC(=O)c1nc2[nH]ncc2cc1-n1cccn1`, the Kd in assay [1] was 36 nM. In assay [2], the IC50 was 3760 nM.
`C[C@H](Oc1cc2cc(C(N)=O)cc(F)c2nc1N)c1ncc(F)cc1-n1cccn1` gave a dissociation constant (Kd) in assay [1] of 68 nM. In addition, the IC50 in assay [2] was determined as 3930 nM.
In the same order, the values of `C[C@H](Oc1cc2cc(F)ccc2nc1N)c1cc(OCC(=O)O)ccc1-n1cccn1` are 63 nM and 3890 nM.
Take `C[C@H](Oc1cc2cc(F)ccc2nc1N)c1cc(CCC(=O)O)ccc1-n1cccn1`: binding in assay [1] was characterised by a dissociation constant (Kd) of 188 nM. Moreover, the IC50 in assay [2] came out at 3600 nM.
